Consider one molecule from patent publication KR20170031305A, “방사성 요오드 표지 아자이드 추적체, 이의 제조방법 및 이를 유효성분으로 포함하는 방사성 요오드 표지 또는 의료 진단용 조성물” (한국원자력연구원, priority 2015, dated 2017).

Series [1] is described as follows: Stability in normal mouse serum at 37 °C, radio-TLC (Experimental Example 2). Format: in vitro ADME.
The nature of series [2]: Biodistribution in ICR mice after intravenous injection, gamma counter (Experimental Example 3). Format: in vivo. The settings on record: ICR male mice, i.v., 1 μCi/100 μL per mouse.

Consider `[N-]=[N+]=NCCOCCOCCOCCNC(=O)c1ccc([125I])cc1` [실시예 1, 125I이 표지된 N-(2-(2-(2-(2-아지도에톡시)에톡시)에톡시)에틸)-4-아이오도벤즈아마이드], for which the “decrease of radiochemical purity in mouse serum” value in series [1] (after 5 h) is “거의 감소하지 않고”. In addition, the remaining at 5 h in series [1] (after 5 h, read-out: radiochemical purity in mouse serum) is not below 95%. Moreover, the remaining at 24 h in series [1] (after 24 h, read-out: radiochemical purity in mouse serum) is not below 90%. Further, the “time to absorption and accumulation in liver and kidney” value in series [2] is not above 15 min. Further, the tissue uptake at 1 h in series [2] (liver and kidney, iv, 1 uCi/animal, within 1 h, read-out: concentration (liver and kidney)) is not above 20 %ID/g. In series [2] (liver and kidney, iv, 1 uCi/animal, within 2 h, read-out: concentration (liver and kidney)), the tissue uptake at 2 h was not above 10 %ID/g. Besides, the “accumulation in liver and kidney” value in series [2] (within 15 min) was “높은 농도로 집적”. Further, the “excretion from the body” value in series [2] (within 2 h) is reported as not below 90%.
